Experimental data taken from US20250152591A1, “TREATMENT OF HEMATOLOGICAL MALIGNANCIES WITH MENIN INHIBITORS AND P-GLYCOPROTEIN INHIBITORS” (Kura Oncology, Inc., priority 2022, published 2025).

Molecular target: T1, Menin (Homo sapiens, UniProt O00255)
T1 sequence (O00255 1-610): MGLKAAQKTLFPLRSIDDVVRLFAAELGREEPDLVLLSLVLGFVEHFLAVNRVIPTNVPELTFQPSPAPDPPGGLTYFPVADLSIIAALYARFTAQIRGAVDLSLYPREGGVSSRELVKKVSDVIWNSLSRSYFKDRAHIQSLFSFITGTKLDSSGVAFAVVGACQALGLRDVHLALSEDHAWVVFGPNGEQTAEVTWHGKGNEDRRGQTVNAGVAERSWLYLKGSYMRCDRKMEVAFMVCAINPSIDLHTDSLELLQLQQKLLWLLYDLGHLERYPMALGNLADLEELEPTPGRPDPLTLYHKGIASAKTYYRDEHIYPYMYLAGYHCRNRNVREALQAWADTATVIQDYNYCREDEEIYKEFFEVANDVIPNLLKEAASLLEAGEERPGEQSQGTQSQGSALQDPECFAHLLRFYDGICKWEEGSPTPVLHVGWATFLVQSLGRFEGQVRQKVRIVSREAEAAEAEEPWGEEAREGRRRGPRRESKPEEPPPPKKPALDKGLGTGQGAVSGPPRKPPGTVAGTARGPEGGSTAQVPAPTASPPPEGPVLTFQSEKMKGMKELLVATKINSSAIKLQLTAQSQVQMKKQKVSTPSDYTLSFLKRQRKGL
Experiment: Menin binding, fluorescence polarization assay
Conditions: fluorescence polarization assay analogous to WO2017/161028, Example 6
Method: Menin binding was evaluated using an assay analogous to the fluorescence polarization assay described in PCT Publ. No. WO2017/161028, Example 6.

| Compound | IC50 [nM] |
| --- | --- |
| CNc1nc(NC2CCN(Cc3ccc4c(cc(C#N)n4C[C@H](C)N4CCN(S(C)(=O)=O)CC4)c3C)CC2)c2cc([C@@H](O)C(F)(F)F)sc2n1 [Compound IB, 4-methyl-5-((4-((2-(methylamino)-6-((S)-2,2,2-trifluoro-1-hydroxyethyl)thieno[2,3-d]pyrimidin-4-yl)amino)piperidin-1-yl)methyl)-1-((S)-2-(4-(methylsulfonyl)piperazin-1-yl)propyl)-1H-indole-2-carbonitrile] | 63.5 |
| Cc1c(CN2CCC(Nc3nc(N)nc4sc(CC(F)(F)F)cc34)CC2)ccc2c1cc(C#N)n2C[C@H](C)N1CCN(S(C)(=O)=O)CC1 [Compound IA] | 36.2 |
| CNc1nc(NC2CCN(Cc3ccc4c(cc(C#N)n4C[C@H](C)N4CCN(S(C)(=O)=O)CC4)c3C)CC2)c2cc([C@H](O)C(F)(F)F)sc2n1 [Compound IC, 4-methyl-5-((4-((2-(methylamino)-6-((R)-2,2,2-trifluoro-1-hydroxyethyl)thieno[2,3-d]pyrimidin-4-yl)amino)piperidin-1-yl)methyl)-1-((S)-2-(4-(methylsulfonyl)piperazin-1-yl)propyl)-1H-indole-2-carbonitrile] | 401 |
